Data from the supplement of paper PMC4862054.

Tests used:
Conditions in all cases: incubation time: 72 h
CAL-148 = assay: normalised viability (% of control), CellTiter-Blue; higher = more viable cells (about 100 = DMSO control)
Protocol: (§1)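 DSRT, CellTiter-Blue viability, 72 h incubation. Signal is normalised to DMSO and benzethonium chloride controls. Value is the normalised response at dose 3.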

MDA-MB-231 [1] = assay: as above
Protocol: as §1

HCC1599 [2] = assay: as above
Protocol: as §1

SK-BR-3 [3] = assay: as above
Protocol: as §1

CAL-120 [4] = assay: as above
Protocol: as §1

MDA-MB-468 [5] = assay: as above
Protocol: as §1

MFM-223 [6] = assay: as above
Protocol: as §1

MDA-MB-453 [7] = assay: as above
Protocol: as §1

HDQ-P1 [8] = assay: as above
Protocol: as §1

HCC1143 [9] = assay: as above
Protocol: as §1

MDA-MB-436 = assay: as above
Protocol: as §1

CAL-85-1 [10] = assay: as above
Protocol: as §1

BT-474 [11] = assay: as above
Protocol: as §1

MDA-MB-231 [12] = assay: drug sensitivity score (DSS), CellTiter-Blue viability (DSS (AUC-based score)); higher = stronger viability inhibition; extreme values may be limits of the assay
Protocol: (§2)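 DSRT with the CellTiter-Blue (resazurin reduction) viability readout, fluorescence 560/590 nm, 72 h incubation. Plates were normalised to DMSO and benzethonium chloride controls. DSS is computed from the area under the fitted dose-response curve (5 or 9 concentrations).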

DU-4475 = assay: as above
Protocol: as §2

HCC1599 [13] = assay: as above
Protocol: as §2

HCC1937 = assay: as above
Protocol: as §2

Hs578T = assay: as above
Protocol: as §2

BT-549 = assay: as above
Protocol: as §2

SK-BR-3 [14] = assay: as above
Protocol: as §2

CAL-120 [15] = assay: as above
Protocol: as §2

MDA-MB-468 [16] = assay: as above
Protocol: as §2

MFM-223 [17] = assay: as above
Protocol: as §2

MDA-MB-453 [18] = assay: as above
Protocol: as §2

HDQ-P1 [19] = assay: as above
Protocol: as §2

HCC1143 [20] = assay: as above
Protocol: as §2

CAL-85-1 [21] = assay: as above
Protocol: as §2

BT-474 [22] = assay: as above
Protocol: as §2

| SMILES | drug sensitivity score (MDA-MB-231 [12]) | drug sensitivity score (DU-4475) | drug sensitivity score (HCC1599 [13]) | drug sensitivity score (HCC1937) | drug sensitivity score (Hs578T) | drug sensitivity score (BT-549) | drug sensitivity score (SK-BR-3 [14]) | drug sensitivity score (CAL-120 [15]) | drug sensitivity score (MDA-MB-468 [16]) | drug sensitivity score (MFM-223 [17]) | drug sensitivity score (MDA-MB-453 [18]) | drug sensitivity score (HDQ-P1 [19]) | drug sensitivity score (HCC1143 [20]) | drug sensitivity score (CAL-85-1 [21]) | drug sensitivity score (BT-474 [22]) | normalised viability (CAL-148; 10 nM) [%] | normalised viability (MDA-MB-231 [1]; 100 nM) [%] | normalised viability (HCC1599 [2]; 100 nM) [%] | normalised viability (SK-BR-3 [3]; 100 nM) [%] | normalised viability (CAL-120 [4]; 100 nM) [%] | also measured |
| --- | --- | --- | --- | --- | --- | --- | --- | --- | --- | --- | --- | --- | --- | --- | --- | --- | --- | --- | --- | --- | --- |
| CC(C)C[C@H](NC(=O)[C@H](CCc1ccccc1)NC(=O)CN1CCOCC1)C(=O)N[C@@H](Cc1ccccc1)C(=O)N[C@@H](CC(C)C)C(=O)[C@@]1(C)CO1 [Carfilzomib] | 25.5 | 22.8 | 7.66 | 27 | 27.6 | 29.2 | 23.7 | 23.9 | 26.8 | 26.4 | 27.8 | 23.7 | 20.4 | 22.2 | 16.1 | – | – | – | – | – | normalised viability (CAL-148; 1 nM): 98.5%; normalised viability (MDA-MB-231 [1]; 10 nM): 28.1%; normalised viability (HCC1599 [2]; 10 nM): 109%; normalised viability (SK-BR-3 [3]; 10 nM): 33.2%; normalised viability (CAL-120 [4]; 10 nM): 46.2%; normalised viability (MDA-MB-468 [5]; 10 nM): 19.5%; normalised viability (MFM-223 [6]; 10 nM): 14.8%; normalised viability (MDA-MB-453 [7]; 1 nM): 96.8%; normalised viability (HDQ-P1 [8]; 1 nM): 109%; normalised viability (HCC1143 [9]; 10 nM): 53.4%; normalised viability (MDA-MB-436; 10 nM): 73.5%; normalised viability (CAL-85-1 [10]; 1 nM): 104%; normalised viability (BT-474 [11]; 10 nM): 87.2% |
| Nc1nc(Cl)nc2c1ncn2[C@@H]1O[C@H](CO)[C@@H](O)[C@@H]1F [Clofarabine] | 12 | 13.3 | 2.01 | 15.5 | 7.51 | 10.6 | 15.3 | 11.6 | 12.5 | 0 | 9.02 | 0 | 9.25 | 10.1 | 0 | 86.8 | 64.2 | 93.7 | 65 | 78.8 | normalised viability (MDA-MB-468 [5]; 100 nM): 91.3%; normalised viability (MFM-223 [6]; 100 nM): 89.1%; normalised viability (MDA-MB-453 [7]; 10 nM): 103%; normalised viability (HDQ-P1 [8]; 10 nM): 110%; normalised viability (HCC1143 [9]; 100 nM): 79.7%; normalised viability (MDA-MB-436; 100 nM): 77%; normalised viability (CAL-85-1 [10]; 10 nM): 96.8%; normalised viability (BT-474 [11]; 100 nM): 99.2% |
| CCN(CC)CCOc1ccc(C(=C(Cl)c2ccccc2)c2ccccc2)cc1 [Clomifene] | 5.53 | 1.29 | 0 | 1.23 | 0 | 3.64 | 0 | 3.83 | 4.91 | 2.02 | 3.38 | 1.07 | 0 | 1.08 | 2.94 | 94 | 101 | 100 | 93.4 | 94.8 | normalised viability (MDA-MB-468 [5]; 100 nM): 97.5%; normalised viability (MFM-223 [6]; 100 nM): 103%; normalised viability (MDA-MB-453 [7]; 10 nM): 103%; normalised viability (HDQ-P1 [8]; 10 nM): 115%; normalised viability (HCC1143 [9]; 100 nM): 88.5%; normalised viability (MDA-MB-436; 100 nM): 114%; normalised viability (CAL-85-1 [10]; 10 nM): 96.2%; normalised viability (BT-474 [11]; 100 nM): 116% |
